Read-outs that look alike come from different tables or passages of the source.

Assay in all cases: biochemical
Parameters in all cases: DiscoveRx KINOMEscan active site-directed competition binding; percent of control kinase bound to immobilised ligand

Assay [1] addresses T1, ABL1(Q252H)-phosphorylated (Homo sapiens, UniProt P00519, Q252H).
T1 construct: phosphorylated

Assay [2] concerns the target CSNK1G1 (Homo sapiens, UniProt Q9HCP0).
Assay [3] deals with EGFR(L861Q) (Homo sapiens, UniProt P00533, L861Q).
Sequence of EGFR(L861Q) (P00533 whole entry L861Q): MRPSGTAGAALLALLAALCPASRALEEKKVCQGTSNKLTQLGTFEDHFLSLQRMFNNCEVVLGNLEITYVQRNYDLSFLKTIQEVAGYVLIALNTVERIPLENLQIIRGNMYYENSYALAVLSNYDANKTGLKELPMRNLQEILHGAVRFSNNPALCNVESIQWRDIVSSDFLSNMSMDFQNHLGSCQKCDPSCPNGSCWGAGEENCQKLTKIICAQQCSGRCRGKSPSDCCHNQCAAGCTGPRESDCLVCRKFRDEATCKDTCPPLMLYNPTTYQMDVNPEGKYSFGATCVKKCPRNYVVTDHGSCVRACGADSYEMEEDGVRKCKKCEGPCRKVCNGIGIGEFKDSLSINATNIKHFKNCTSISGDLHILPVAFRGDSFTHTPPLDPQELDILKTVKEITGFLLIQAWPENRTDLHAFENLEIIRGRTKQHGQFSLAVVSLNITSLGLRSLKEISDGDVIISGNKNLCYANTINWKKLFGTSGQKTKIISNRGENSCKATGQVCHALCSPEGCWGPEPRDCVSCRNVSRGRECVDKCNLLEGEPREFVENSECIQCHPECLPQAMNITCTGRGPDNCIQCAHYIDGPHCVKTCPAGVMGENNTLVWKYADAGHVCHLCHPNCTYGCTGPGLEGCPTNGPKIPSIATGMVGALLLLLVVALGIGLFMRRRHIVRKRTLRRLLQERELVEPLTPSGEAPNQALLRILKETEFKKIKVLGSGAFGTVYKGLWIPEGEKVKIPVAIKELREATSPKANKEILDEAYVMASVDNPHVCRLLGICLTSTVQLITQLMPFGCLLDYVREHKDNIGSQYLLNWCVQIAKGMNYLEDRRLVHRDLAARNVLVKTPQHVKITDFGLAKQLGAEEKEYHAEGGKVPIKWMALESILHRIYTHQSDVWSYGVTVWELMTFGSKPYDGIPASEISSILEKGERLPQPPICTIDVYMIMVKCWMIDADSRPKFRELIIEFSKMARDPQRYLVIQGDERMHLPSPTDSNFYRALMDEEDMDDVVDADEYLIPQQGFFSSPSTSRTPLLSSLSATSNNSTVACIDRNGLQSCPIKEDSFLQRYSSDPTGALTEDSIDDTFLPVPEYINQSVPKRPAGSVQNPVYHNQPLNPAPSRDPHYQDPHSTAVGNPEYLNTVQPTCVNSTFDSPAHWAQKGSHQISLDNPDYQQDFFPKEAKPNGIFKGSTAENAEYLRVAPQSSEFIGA
For assay [4], the target named is T2, EPHA6 (Homo sapiens, UniProt Q9UF33).
T2 sequence (Q9UF33 1-1036): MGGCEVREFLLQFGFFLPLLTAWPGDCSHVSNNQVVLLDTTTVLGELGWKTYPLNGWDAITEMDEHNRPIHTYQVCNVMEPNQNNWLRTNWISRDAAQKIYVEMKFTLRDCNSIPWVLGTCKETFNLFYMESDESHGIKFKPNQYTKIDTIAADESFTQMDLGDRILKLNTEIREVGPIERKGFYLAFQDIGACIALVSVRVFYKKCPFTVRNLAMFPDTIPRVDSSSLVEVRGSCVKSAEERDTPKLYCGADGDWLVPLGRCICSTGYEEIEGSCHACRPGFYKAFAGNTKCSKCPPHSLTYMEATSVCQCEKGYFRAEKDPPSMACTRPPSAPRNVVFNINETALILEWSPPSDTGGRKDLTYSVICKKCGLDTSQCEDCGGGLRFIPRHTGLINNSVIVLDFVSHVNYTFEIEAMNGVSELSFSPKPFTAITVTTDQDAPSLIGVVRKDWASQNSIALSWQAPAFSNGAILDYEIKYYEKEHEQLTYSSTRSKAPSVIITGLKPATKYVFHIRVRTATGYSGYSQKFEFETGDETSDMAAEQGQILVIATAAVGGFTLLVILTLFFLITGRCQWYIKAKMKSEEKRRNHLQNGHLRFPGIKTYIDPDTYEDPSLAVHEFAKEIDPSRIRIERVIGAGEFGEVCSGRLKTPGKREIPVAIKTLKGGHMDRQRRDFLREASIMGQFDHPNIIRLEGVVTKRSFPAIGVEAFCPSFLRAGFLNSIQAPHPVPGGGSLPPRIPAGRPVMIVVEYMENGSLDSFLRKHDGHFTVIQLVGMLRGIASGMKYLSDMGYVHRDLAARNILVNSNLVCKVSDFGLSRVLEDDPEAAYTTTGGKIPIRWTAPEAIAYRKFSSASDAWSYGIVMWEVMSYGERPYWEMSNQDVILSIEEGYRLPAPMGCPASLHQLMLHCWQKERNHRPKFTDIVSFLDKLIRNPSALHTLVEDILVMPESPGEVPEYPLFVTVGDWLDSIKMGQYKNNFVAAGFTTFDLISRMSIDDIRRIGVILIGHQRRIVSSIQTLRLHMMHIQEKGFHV

Assay [5] deals with T3, EPHB3 (Homo sapiens, UniProt P54753).
T3 sequence (P54753 1-998): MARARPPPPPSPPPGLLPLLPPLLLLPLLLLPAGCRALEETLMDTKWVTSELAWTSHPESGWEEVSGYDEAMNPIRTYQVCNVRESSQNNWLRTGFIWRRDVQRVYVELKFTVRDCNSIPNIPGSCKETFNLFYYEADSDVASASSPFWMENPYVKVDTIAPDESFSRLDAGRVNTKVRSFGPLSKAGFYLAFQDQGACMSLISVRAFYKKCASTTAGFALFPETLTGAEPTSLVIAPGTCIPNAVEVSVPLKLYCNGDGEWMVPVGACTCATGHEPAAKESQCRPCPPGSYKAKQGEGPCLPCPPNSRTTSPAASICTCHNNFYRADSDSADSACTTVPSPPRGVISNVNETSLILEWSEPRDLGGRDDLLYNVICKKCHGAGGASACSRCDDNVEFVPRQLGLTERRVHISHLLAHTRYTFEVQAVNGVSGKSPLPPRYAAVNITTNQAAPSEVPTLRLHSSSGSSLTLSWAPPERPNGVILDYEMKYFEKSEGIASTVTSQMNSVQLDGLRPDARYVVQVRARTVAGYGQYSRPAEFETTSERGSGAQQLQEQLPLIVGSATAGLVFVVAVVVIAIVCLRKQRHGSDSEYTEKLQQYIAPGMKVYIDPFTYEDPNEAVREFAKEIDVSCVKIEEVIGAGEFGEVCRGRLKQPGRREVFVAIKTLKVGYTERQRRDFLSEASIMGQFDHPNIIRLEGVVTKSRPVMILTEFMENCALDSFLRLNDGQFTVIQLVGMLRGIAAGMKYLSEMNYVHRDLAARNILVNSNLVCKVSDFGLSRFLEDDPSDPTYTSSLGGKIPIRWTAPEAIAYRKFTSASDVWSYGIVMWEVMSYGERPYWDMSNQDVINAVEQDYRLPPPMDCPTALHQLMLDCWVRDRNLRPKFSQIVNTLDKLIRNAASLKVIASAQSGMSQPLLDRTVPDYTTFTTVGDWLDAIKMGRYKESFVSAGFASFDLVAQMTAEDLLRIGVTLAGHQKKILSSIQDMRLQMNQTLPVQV

Assay [6] deals with T4, ERK3 (Homo sapiens, UniProt Q16659).
T4 construct: gene MAPK6
T4 sequence (Q16659 whole entry): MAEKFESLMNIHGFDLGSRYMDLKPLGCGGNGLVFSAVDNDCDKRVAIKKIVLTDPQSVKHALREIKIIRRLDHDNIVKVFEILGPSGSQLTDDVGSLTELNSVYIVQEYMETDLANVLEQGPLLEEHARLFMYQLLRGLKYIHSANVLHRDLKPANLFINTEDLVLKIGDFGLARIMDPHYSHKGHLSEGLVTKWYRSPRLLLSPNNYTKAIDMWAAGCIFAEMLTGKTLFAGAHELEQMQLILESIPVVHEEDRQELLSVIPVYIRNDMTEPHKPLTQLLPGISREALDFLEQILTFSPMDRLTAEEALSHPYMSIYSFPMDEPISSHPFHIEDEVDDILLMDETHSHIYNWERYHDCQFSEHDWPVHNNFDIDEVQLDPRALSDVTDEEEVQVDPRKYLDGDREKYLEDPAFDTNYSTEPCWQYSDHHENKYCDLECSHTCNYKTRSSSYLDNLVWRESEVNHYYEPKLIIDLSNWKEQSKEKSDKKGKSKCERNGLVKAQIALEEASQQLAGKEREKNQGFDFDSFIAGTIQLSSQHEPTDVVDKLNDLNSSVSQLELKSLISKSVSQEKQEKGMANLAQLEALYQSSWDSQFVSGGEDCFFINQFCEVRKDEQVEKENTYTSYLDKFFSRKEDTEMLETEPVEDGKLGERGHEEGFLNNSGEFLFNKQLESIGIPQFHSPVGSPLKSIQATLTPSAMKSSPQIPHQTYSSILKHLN

Assay [7] deals with T5, JNK3 (Homo sapiens, UniProt P53779).
T5 construct: gene MAPK10
T5 sequence (P53779 whole entry): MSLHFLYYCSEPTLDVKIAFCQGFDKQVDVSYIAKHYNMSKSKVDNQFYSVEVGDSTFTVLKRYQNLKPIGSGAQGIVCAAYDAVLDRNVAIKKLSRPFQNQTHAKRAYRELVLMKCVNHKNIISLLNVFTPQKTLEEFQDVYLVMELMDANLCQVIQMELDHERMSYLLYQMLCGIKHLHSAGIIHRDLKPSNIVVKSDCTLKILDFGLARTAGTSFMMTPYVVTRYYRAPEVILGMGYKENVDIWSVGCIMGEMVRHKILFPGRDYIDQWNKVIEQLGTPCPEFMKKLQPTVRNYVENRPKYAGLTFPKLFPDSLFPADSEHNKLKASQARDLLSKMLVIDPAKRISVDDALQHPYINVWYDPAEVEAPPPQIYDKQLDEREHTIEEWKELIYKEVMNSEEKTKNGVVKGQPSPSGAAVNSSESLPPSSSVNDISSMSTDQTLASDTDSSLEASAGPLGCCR

Assay [8] addresses MST1R (Homo sapiens, UniProt Q04912).
In assay [9] the target is PAK1 (Homo sapiens, UniProt Q13153).
Sequence of PAK1 (Q13153 whole entry): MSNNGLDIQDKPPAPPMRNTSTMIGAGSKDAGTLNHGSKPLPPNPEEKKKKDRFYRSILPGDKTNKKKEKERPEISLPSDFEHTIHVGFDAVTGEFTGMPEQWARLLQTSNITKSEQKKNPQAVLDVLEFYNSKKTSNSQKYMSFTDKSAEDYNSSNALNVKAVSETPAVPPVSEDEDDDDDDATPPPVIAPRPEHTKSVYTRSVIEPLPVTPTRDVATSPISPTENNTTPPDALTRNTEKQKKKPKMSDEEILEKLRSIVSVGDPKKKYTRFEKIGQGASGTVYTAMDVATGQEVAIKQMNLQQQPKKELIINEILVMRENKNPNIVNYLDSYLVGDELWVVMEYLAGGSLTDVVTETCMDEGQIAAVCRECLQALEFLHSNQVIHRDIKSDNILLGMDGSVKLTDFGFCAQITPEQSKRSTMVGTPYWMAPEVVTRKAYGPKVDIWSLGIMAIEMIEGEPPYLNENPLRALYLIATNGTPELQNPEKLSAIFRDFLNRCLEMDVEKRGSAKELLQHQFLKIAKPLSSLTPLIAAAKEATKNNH
Where [10] appears, read: read-out: Niraparib (MK-4827) / %Ctrl @ 10000nM.
The mark [11] stands for this setting: read-out: Olaparib / %Ctrl @ 10000nM.
Where [12] appears, read: read-out: Rucaparib / %Ctrl @ 10000nM, binding competition, % of control.
The mark [13] stands for this setting: read-out: Talazoparib (BMN 673) / %Ctrl @ 10000nM.

Sequence of MST1R (Q04912 whole entry): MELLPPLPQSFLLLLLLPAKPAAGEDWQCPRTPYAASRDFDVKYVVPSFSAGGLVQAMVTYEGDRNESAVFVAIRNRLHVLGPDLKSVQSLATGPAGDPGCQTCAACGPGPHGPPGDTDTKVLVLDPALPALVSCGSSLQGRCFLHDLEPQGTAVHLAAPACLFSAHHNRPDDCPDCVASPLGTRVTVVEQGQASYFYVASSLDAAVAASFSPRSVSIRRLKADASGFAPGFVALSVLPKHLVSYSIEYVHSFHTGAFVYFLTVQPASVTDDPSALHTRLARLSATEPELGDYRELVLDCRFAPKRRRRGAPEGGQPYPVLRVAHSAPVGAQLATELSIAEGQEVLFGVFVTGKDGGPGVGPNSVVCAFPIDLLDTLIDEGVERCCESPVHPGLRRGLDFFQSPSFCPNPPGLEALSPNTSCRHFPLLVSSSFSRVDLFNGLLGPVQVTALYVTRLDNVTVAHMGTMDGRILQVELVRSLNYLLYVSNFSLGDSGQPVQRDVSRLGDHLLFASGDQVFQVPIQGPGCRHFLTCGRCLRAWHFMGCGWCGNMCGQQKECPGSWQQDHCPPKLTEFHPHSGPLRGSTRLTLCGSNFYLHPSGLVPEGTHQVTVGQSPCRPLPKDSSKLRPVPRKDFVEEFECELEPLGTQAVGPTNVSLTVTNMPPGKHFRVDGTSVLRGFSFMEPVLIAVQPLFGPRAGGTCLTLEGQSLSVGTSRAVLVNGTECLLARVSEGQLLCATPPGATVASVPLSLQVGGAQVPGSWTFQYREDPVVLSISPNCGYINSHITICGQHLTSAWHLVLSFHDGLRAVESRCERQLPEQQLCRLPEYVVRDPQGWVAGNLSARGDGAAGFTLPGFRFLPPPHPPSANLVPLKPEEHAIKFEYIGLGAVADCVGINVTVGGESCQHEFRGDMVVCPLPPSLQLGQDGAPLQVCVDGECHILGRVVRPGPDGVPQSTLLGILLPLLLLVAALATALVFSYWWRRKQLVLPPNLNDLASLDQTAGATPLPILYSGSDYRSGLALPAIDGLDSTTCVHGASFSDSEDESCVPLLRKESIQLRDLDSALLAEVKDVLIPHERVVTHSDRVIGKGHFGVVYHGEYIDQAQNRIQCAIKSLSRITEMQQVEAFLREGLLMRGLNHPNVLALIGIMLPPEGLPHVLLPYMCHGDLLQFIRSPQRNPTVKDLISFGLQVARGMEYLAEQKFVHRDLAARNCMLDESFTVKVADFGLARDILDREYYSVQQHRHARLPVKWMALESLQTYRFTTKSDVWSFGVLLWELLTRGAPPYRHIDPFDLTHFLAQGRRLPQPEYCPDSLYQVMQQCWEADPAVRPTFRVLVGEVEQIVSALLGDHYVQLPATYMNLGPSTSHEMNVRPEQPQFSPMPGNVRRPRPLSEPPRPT
Sequence of CSNK1G1 (Q9HCP0 whole entry): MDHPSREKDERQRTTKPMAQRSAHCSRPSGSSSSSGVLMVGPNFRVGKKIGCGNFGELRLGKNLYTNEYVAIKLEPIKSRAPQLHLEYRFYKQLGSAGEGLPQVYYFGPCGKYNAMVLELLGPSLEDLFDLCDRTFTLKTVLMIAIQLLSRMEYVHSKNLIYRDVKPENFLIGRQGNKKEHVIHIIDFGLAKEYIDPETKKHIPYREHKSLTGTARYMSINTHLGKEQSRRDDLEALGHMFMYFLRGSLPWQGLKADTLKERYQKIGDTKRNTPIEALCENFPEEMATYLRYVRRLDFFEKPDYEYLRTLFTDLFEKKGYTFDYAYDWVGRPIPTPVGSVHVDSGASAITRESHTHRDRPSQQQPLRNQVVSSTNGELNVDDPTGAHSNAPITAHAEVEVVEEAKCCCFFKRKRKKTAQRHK

Take `NC(=O)c1cccc2cn(-c3ccc([C@@H]4CCCNC4)cc3)nc12` [Niraparib]: the percent of control binding at 10 µM stood at 51% in [1] (setting [10]); 98% in [2] (setting [10]); 88% in assay [3] (setting [10]); 89% in assay [4] (setting [10]); 82% in assay [5] (setting [10]); 81% in assay [6] (setting [10]). Also, the percent of control binding at 10 µM in [7] (setting [10]) stood at 88%; in assay [8] (setting [10]), 88%; in assay [9] (setting [10]), 86%.

Consider `O=C(c1cc(Cc2n[nH]c(=O)c3ccccc23)ccc1F)N1CCN(C(=O)C2CC2)CC1` [Olaparib], for which the percent of control binding at 10 µM came to 71% in [1] (setting [11]); 97% in assay [2] (setting [11]); 91% in assay [3] (setting [11]); 94% in assay [4] (setting [11]); 87% in assay [5] (setting [11]); 95% in assay [6] (setting [11]). For the same compound, the figures for the percent of control binding at 10 µM in assay [7] (setting [11]), in assay [8] (setting [11]) and in assay [9] (setting [11]) were 86%, 84% and 91%, respectively.

For the compound `CNCc1ccc(-c2[nH]c3cc(F)cc4c3c2CCNC4=O)cc1` [Rucaparib], the percent of control binding at 10 µM amounted to 72% in assay [1] (setting [12]); 93% in assay [2] (setting [12]); 70% in assay [3] (setting [12]); 99% in assay [4] (setting [12]); 99% in [5] (setting [12]); 90% in [6] (setting [12]). Further, the percent of control binding at 10 µM was found to be 71% in assay [7] (setting [12]), 91% in [8] (setting [12]) and 75% in [9] (setting [12]).

As to `Cn1ncnc1[C@H]1c2n[nH]c(=O)c3cc(F)cc(c23)N[C@@H]1c1ccc(F)cc1` [Talazoparib], the percent of control binding at 10 µM is 100% in [1] (setting [13]); 99% in [2] (setting [13]); 82% in assay [3] (setting [13]); 100% in assay [4] (setting [13]); 100% in assay [5] (setting [13]); 100% in assay [6] (setting [13]). Moreover, the percent of control binding at 10 µM in [7] (setting [13]) amounted to 91%; in assay [8] (setting [13]), 99%; in assay [9] (setting [13]), 93%.

The record behind these values is PMC7026418, “The kinase polypharmacology landscape of clinical PARP inhibitors” (Scientific Reports, 2020).
